In patent US20080176787A1, “Parathyroid hormone analogues and methods of use” (priority 2005, published 2008):
Read-outs that look alike come from different tables or passages of the source. Positions of bridges follow the written chain, without caps; N, C: chain ends. Residues, ends and D or L forms follow the SMILES beside them.

How the values were obtained:
[1] = test system: post-menopausal women with low bone mineral density; test: Phase II clinical study of subcutaneous Ostabolin-C in post-menopausal women with low BMD (BMD, bone markers, serum calcium, side effects); settings: for Sitting HR / Headache / HyperCa > 2.65 / HyperCa > 2.75 / N + H / Nausea: 4 months; for Headache / HyperCa > 2.65 / HyperCa > 2.75 / N + H / Nausea: unit assumed
Text: A four month Phase II clinical study was undertaken to investigate the safety, tolerability and efficacy of Ostabolin-C™ in post-menopausal women with low bone mineral density (BMD). […] The clinical protocol is a 16-week phase II randomized, double-blind, placebo-controlled, parallel group, dose finding study to investigate the safety, tolerability and efficacy of Ostabolin-C™ in post-menopausal women with low bone mineral density (BMD). In this study, 261 patients underwent four months of daily dosing of placebo and four active groups. The active groups included daily administration of Ostabolin-C™ in doses of 7.5, 15, 30, and 45 μg. Ostabolin-C™ is formulated as a clear, colorless liquid provided in pre-filled syringes and injected subcutaneously (SC). Subjects self-administer SC 0.1 mL injections of their assigned dose of Ostabolin-C™ 7.5, 15, 30, and 45 μg or placebo daily for 16 weeks in rotating quadrants of the abdomen. The subjects were post-menopausal women (for at least 5 years) with moderate osteoporosis.
The key endpoints for the study include change in mean BMD at the lumbar spine, as assessed by dual energy x-ray absorptiometry (DEXA), and measured by change from the Baseline visit. The Baseline visit is the first visit of the patient, before undergoing any treatment. Secondary efficacy endpoints include the following, as measured by change from Baseline visit:
DEXA: Bone formation and resorption markers: • Mean femoral neck BMD • Serum osteocalcin • Mean trochanter BMD • Serum amino terminal pro-peptide of type 1 pro-collagen (P1NP) • Mean total hip BMD • Mean radial BMD (distal and midshaft) • Bone specific alkaline phosphatase (BSAP) • Bone mineral content (BMC) • Serum C-telopeptide (CTx) • Bone area • Serum N-telopeptide (NTx)

[2] = Plasma pharmacokinetics of Ostabolin-C formulations in female rats, single 200 μg/kg SC, IM, IV; type: in vivo; settings: rat; for Vd: iv
Procedure: Formulations were prepared once only as follows: The bulk freeze-dried peptide was dissolved in 0.01 M acetic acid (supplied by Fisher Scientific, Loughborough, UK) in a 1:1 ratio, re-aliquotted into dosing vials and deep frozen (approximately −70° C.). The vials were freeze-dried at <−20° C. and stored frozen until required. The freeze-dried aliquots for injection were re-constituted with water for injection (supplied by Animalcare Ltd, York, UK). The peptide was dissolved in an appropriate volume of purified water to an approximate concentration of 2 to 3 mg/mL. Phosphate buffered saline (pH 7.4) was added to give the final required concentration (at approximately pH 7.2). The capped vial(s) were mixed thoroughly to ensure the peptide was fully dissolved. Aseptic techniques and glass vials were used throughout dose preparation. The dose was not sterile filtered. […] The calculated amounts of mannitol, sodium acetate trihydrate and glacial acetic acid were weighed and then dissolved in the correct amount of water for injection. The test article was weighed, added to the solution and stirred to dissolve. The pH was adjusted to 4.5 with 0.1N NaOH or HCl (supplied by Covance, Harrogate) depending on initial pH. Water was added to obtain the required volume.
The calculated amount of lipoic acid was weighed and transferred to a suitable container and then dispersed with water for injection. The pH was adjusted to 7.7 with 1N NaOH (supplied by BDH Laboratory Supplies, a division of Merck Ltd, Poole, UK). The test article was weighed, added and stirred to dissolve. The pH was adjusted to 7.5 with 1N NaOH. Propylene glycol was added to obtain the correct volume.
The calculated amount of DL-Methionine was weighed and transferred to a suitable container and dispersed in water for injection. The test article was weighed and added to the solution. The pH was adjusted to 7.5 with 0.1N NaOH. Ethanol was added to make the required volume.

[3] = test system: gonad-intact cynomolgus monkeys; test: 52-week (12 months) daily subcutaneous study in gonad-intact young cynomolgus monkeys: bone mass, histomorphometry, % cortical porosity; type: in vivo; settings: for % Cortical Porosity: Tibial Mid-Diaphysis, 12 months
Procedure: The peptide [Leu^27]cyclo[Glu^22-Lys^26]-hPTH-(1-31)-NH2 Ostabolin-C™ was administered daily by subcutaneous injection to gonad-intact cynomolgus monkeys (4/sex/group) at dose levels of 0, 2, 10 and 25 μg/kg for 52 weeks. Monkeys were 30 to 40 months of age (2.3-3.5 kg) at treatment start. Tibiae were retained for histomorphometry following labeling with calcein green 15 and 5 days prior to euthanasia. Bone mass, as measured by DXA (dual-energy x-ray absorptiometry) and QCT (quantitative computed tomography), was increased at the lumbar spine, femur and tibia. Changes in vertebral BMD (bone mineral density) translated into significant increases in bone strength. […] Tibial cancellous bone volume increased by more than 50% in all the peptide [Leu^27]cyclo[Glu^22-Lys^26]-hPTH-(1-31)-NH2 treated groups compared to controls and in the tibial mid-diaphysis, increases in cortical width and relative cortical area with concurrent decreases in medullary area were observed. […] Increases in indices of bone formation were associated with decreases in indices of bone resorption (decreased bone resorption markers, decreased osteoclast surface area, minimal cortical porosity), consistent with the uncoupling of these events. This combination of anabolic and anti-catabolic actions may have significant therapeutic value in the treatment of osteoporosis.
Comparative data regarding increase in cortical bone porosity in monkey subjects using Ostabolin C at a variety of doses and using the prior art PTHs 1-34 is shown below.

## CC[C@H](C)[C@H](NC(=O)[C@H](CCC(=O)O)NC(=O)[C@H](CO)NC(=O)[C@@H](NC(=O)[C@@H](N)CO)C(C)C)C(=O)N[C@@H](CCC(N)=O)C(=O)N[C@@H](CC(C)C)C(=O)N[C@@H](CCSC)C(=O)N[C@@H](Cc1c[nH]cn1)C(=O)N[C@@H](CC(N)=O)C(=O)N[C@@H](CC(C)C)C(=O)NCC(=O)N[C@@H](CCCCN)C(=O)N[C@@H](Cc1c[nH]cn1)C(=O)N[C@@H](CC(C)C)C(=O)N[C@@H](CC(N)=O)C(=O)N[C@@H](CO)C(=O)N[C@@H](CCSC)C(=O)N[C@@H](CCC(=O)O)C(=O)N[C@@H](CCCN=C(N)N)C(=O)N[C@H](C(=O)N[C@H]1CCC(=O)NCCCC[C@@H](C(=O)N[C@@H](CC(C)C)C(=O)N[C@@H](CC(C)C)C(=O)N[C@@H](CCC(N)=O)C(=O)N[C@@H](CC(=O)O)C(=O)N[C@H](C(N)=O)C(C)C)NC(=O)[C@H](CCCN=C(N)N)NC(=O)[C@H](CC(C)C)NC(=O)[C@H](Cc2c[nH]c3ccccc23)NC1=O)C(C)C [Ostabolin-C, [Leu^27]cyclo[Glu^22-Lys^26]-PTH-(1-31)-NH2] (H-SVSEIQLMHNLGKHLNSMERVEWLRKLLQDV-NH2; lactam 22-26)
[1]; 30 μg (4 months)
  Mean [Ca]: 0.040 mmol/L
[1]; 30 μg doses (placebo 5%)
  hypercalcemia seen at least once, % of group: 5%
[1]; 30 ug
  Sitting HR: 2.4
  Headache: 19.6%
  HyperCa > 2.65: 4.5%
  HyperCa > 2.75: 2.3%
  N + H: 7.8%
  Nausea: 25.5%
[1]; 45 μg (4 months)
  Mean [Ca]: 0.070 mmol/L
[1]; 45 ug
  Sitting HR: 4.0
  Headache: 21.8%
  HyperCa > 2.65: 27.3%
  HyperCa > 2.75: 9.1%
  N + H: 12.7%
  Nausea: 29.1%
[1]; doses up to and including 30 μg (FIG. 14)
  percent of abnormal serum calcium: no notable difference from placebo
[2]; female, 200 ug/kg, IM, read-out: Absolute bioavailability
  bioavailability: 8.7%
[2]; female, 200 ug/kg, IV, not quantified, read-out: plasma concentrations at 2 minutes post the end of the infusion
  level at 2 min: > 610 ng/mL
[2]; female, 200 ug/kg, SC, read-out: Absolute bioavailability (Fabs)
  bioavailability: < 2%
[2]; female, 200 ug/kg, IV, female rats, read-out: Vss
  Vd: 0.479 L/kg
[2]; female, 200 ug/kg, IV, female rats, read-out: Vz
  Vd: 0.471 L/kg
[2]; female, other: SC, 200 ug/kg, SC, IM and IV dose routes, read-out: terminal elimination half life, where calculable
  half-life: 7.2 to 42.4 min
[2]; 200 ug/kg, IV, female rats
  clearance: 45.4 mL/min/kg
[2]; IV, female rats, post end of infusion
  Tmax: 5 min
[3]; F, 2 μg/kg/day
  % Cortical Porosity: 2.5 ± 0.41%
[3]; F, 10 μg/kg/day
  % Cortical Porosity: 2.6 ± 0.85%
[3]; F, 25 μg/kg/day
  % Cortical Porosity: 3.2 ± 0.87%
[3]; M, 2 μg/kg/day
  % Cortical Porosity: 4.2 ± 0.29%
[3]; M, 10 μg/kg/day
  % Cortical Porosity: 5.1 ± 1.08%
[3]; M, 25 μg/kg/day
  % Cortical Porosity: 8.0 ± 5.54%
[3]; two highest dose levels, 52 weeks
  cortical porosity: Only minor increases
